# Structures can show the parent of a compound that is named as a salt.
# Key:
# behavioral signature = test: SmartCube phenotypic screening (class/subclass and DRFA similarity analysis); type: in vivo, male C57/B16 mice
# Method: A study was conducted to evaluate the CNS-like efficacy of novel test compounds using the SmartCube® System.
# Animals. Male C57/B16 mice from Taconic Laboratories (Germantown, NY) were used. Upon receipt, mice were group-housed in OPTIMice® ventilated cages with 4 mice per cage. Mice were acclimated to the colony room for at least one week prior to test, and subsequently tested at approximately 8-9 weeks of age. All animals were examined, handled, and weighed prior to initiation of the study to assure adequate health and suitability and to minimize nonspecific stress associated with manipulation. During the course of the study, 12/12 light/dark cycles were maintained. The room temperature was 20-23° C. with a relative humidity maintained between 30-70%. Chow and water were provided ad libitum for the duration of the study.
# Test compounds. All compounds were administered orally at a dose volume of 10 mL/kg, 20 minutes prior to testing. Formulations were prepared fresh on day of testing and dosing was completed within one hour of formulation. Compounds were prepared according to the table below. Twelve mice were used in each treatment group:
# SmartCube®. The SmartCube® system is designed to and can successfully measure numerous spontaneous behaviors and response to challenges in the same testing environment. The hardware includes force sensors and a number of aversive stimuli to elicit behavior. Three high-resolution video cameras provide constant 3D view of the mouse in the SmartCube® apparatus (SC) throughout the entire testing period. During the 45-minute test session the mice are exposed to a sequence of challenges. The cubes are cleaned between each run.
# Digital videos of the subjects were processed through computer segmentation algorithms to fit geometrical models to each mouse frame image. The resulting fitted parameters were then analyzed using behavioral classifier algorithms to extract behavioral states, such as rearing, locomotion, and immobility. The data obtained in this way was used to define a drug signature for PGI's known reference compounds and establish a therapeutic class signature against which a test sample can be compared.
# The data mining effort utilizes several analytical methods including Bayesian probabilistic density models and Decision trees. The algorithms consider ˜2,600 measures including frequency and duration of behavioral states such as grooming, rearing, etc., and many other features obtained during the test session.
# Two major types of analyses are routinely conducted: Class and subclass.
# Each reference drug was tested at multiple doses appropriate for that drug in mice.
# Multiple analyses of the data were performed to quantitatively produce independent predictions of drug class, and drug subclass. The behavioral signatures of the test drugs were evaluated using these classifiers to predict potential therapeutic utility.
# The results for the class and subclass analyses are presented as standardized bar charts with percentages that sum to 100 for each dose.
# Similarity Analysis Using “Clouds Framework”. The outcome from SmartCube® is a large set of features (behavioral parameters) that can be used for various analyses. […] Therefore, we formed statistically independent combinations of the original features (further referred to as de-correlated features). Each de-correlated feature extracted information from the whole cluster of the original features, so the new feature space would have lower dimensionality. Next, we applied a proprietary feature ranking algorithm to score each feature for its discrimination power (ability to separate the two groups, e.g. vehicle from treatment). Ranking is an important part of our analyses because it weighs each feature change by its relevance. We applied a feature ranking algorithm, derived from support vector in the support vector machine learning method, to rank each feature.
# prepulse inhibition = test: Prepulse inhibition (PPI) of the auditory startle response, apomorphine-impairment model; conditions: for % PPI (mean ± SEM): averaged across prepulse levels
# Method: Four standard startle chambers (San Diego Instruments, San Diego, CA) were used. […] The tube is mounted on a plastic frame, under which a piezoelectric accelerometer is mounted, which records and transduces the motion of the tube. Three days before drug testing the experimental subjects were each placed in one of the startle test chambers for a period of 10 minutes (without any startle stimuli) as an initial period of acclimation to the apparatus. Two days before drug testing the animals were again placed in the test chamber and then exposed to 12 startle stimuli and to each prepulse level 3 times (see below). This procedure was done to reduce the highly variable responses to the initial exposures to the startle stimuli as well as to ensure that the prepulse stimuli (alone) had no significant effect on the startle response. One day before drug testing, a full 60 trial PPI test session (as subsequently described for the drug testing experiments, see below) was conducted for all experimental subjects.
# On the day of drug testing the rats were transported to the startle chamber room and left undisturbed for at least 30 min. […] After this period, the rats received 12 startle trials, 12 no-stimulus trials, and 12 trials of each of the prepulse/startle trials (see below) for a total of 60 trials. The intertrial interval ranged from 10 to 30 s, and the total session lasted about 25-30 min. The startle trials consisted of single 120 dB white noise bursts lasting 20 ms.
# The prepulse inhibition trials consisted of a prepulse (20 ms burst of white noise with intensities of 75, 80, or 85 dB) followed, 100 ms later, by a startle stimulus (120 dB, 20 ms white noise). During the no-stimulus trial, no startle noise was presented, but the movement of the rat was recorded. This represented a control trial for detecting differences in overall activity. The 60 different trials were presented pseudo-randomly, ensuring that each trial was presented 12 times and that no two consecutive trials were identical. The resulting movement of the rat in the startle chamber was measured during 100 ms after startle stimulus onset (sampling frequency 1 kHz), rectified, amplified, and fed into a computer that determined the maximal response that occurred during the 100-ms period. Basal startle amplitude was determined as the mean amplitude of the 12 startle trials. Prepulse inhibition was calculated according to the formula 100−100%×(PPx/P120), in which PPx is the mean of the 12 prepulse inhibition trials (i.e., for each individual prepulse level), and p120 is the basal startle amplitude. The average level of PPI was also calculated (average of the responses to pp75, pp80, or pp85) and analyzed separately.
# sleep/wake and cataplexy = type: in vivo, male DTA mice; conditions: amphetamine 2 mg/kg i.p.
# cognitive flexibility = test: Operant set-shifting test against PCP; type: in vivo, male Wistar rats
# Method: This assay serves as a model of impaired executive function associated with neuropsychiatric disorders like schizophrenia. The aim of this study was to evaluate COMPOUND C to reverse deficits observed with PCP on cognitive flexibility using the operant set-shifting test in the rat.
# Substances & Formulation.
# Doses were prepared by separate weighing (W/V). COMPOUND C formulations were prepared fresh on each dosing day and dosing was completed within 8 hours of formulation. Phencyclidine (PCP) hydrochloride, white powder, was dissolved in physiological saline by magnetic stirring, fresh each day of dosing.
# Test System. 78 male Wistar rats were supplied for this study. • 72 rats, 8-9 weeks old, weighing 218-299 g at the beginning of the visual discrimination were submitted to the entire behavioral testing and assigned to match groups based on their performance during the second visual discrimination session. • 6 spare rats were submitted to lever pressing, side bias and visual discrimination but were discarded for the testing period (set-shift and reversal)
# The experimental protocol which detects effects on behavioral flexibility follows that described by Floresco et al. (Behav. Brain Res., 190, 85-96 (2008)).
# Apparatus. The apparatus consists of standard Med Associates ENV-008 Skinner boxes (30×25×30 cm) fitted with a house light, two retractable levers and a food pellet dispenser. The levers are located on either side of the food receptacle connected to the pellet dispenser. A light emitting diode stimulus light is positioned centrally above each lever and served as a stimulus for visual-cue discrimination learning.
# Acquisition of lever-pressing (training). The aim of this phase was to train animals to lever-press to receive a food pellet reward.
# Side bias. On the last day of training, the side bias for the rat was determined. The session was similar to the lever pressing session except that both levers were inserted into the chamber together (i.e. 90 levers presentations every 20 seconds). Again, the stimulus lights above each of the levers were not illuminated during this training session. On the first levers presentation, a food pellet was delivered after responding on either lever. Upon subsequent insertion of the levers, food was delivered only if the rat responded on the lever opposite to the one chosen initially. If the rat chose the same lever to the initial choice, no food was delivered. This continued until the rat chose the lever opposite to the one chosen initially. After choosing both levers, a new trial commenced. Thus, one trial for the side bias procedure consisted of responded on both levers. The sessions terminated after 90 levers presentations or after completion of 21 trials.
# Visual-cue discrimination learning. After determining the side bias, animals were submitted to visual-cue discrimination learning.
# A session began with both levers retracted and the chamber in darkness (the inter-trial state). Every 20 seconds, a trial began with illumination of one of the stimulus lights above one of the levers. 3 seconds later, the house light was illuminated, and both levers were inserted into the chamber. […] After food delivery, the house light remained on for another 4 seconds, after which the chamber returned to the inter-trial state. If the rat responded on the other lever (incorrect response), both levers retracted immediately without food delivery and the chamber reverted to the inter-trial state.
# [1] = PK of S-viloxazine after single PO administration; conditions: for Tmax: 40 mg/kg
# Method: Study Design. […] Food was returned 2 hours post-dose.
# Test Article Formulation.
# anxiety-like behavior = test: Elevated plus maze (EPM); type: in vivo, male Wistar rats; conditions: for Closed arm entries / Closed arm returns / Head dips in open arms / Stretch-attend postures / Time in closed arms / Time in open arms / Total arm entries: mean; for % Time in open arms / Open Arm Entries / Total distance travelled: mean ± S.E.M.
# [2] = DRFA dose by dose, maximum (COMPOUND A: 90 and 120 mg/kg)
# [3] = vehicle + apomorphine 0.5 mg/kg s.c.
# [4] = haloperidol 0.3 mg/kg + apomorphine
# [5] = PCP 2 mg/kg s.c., first reversal session
# [6] = PCP 2 mg/kg s.c., first set-shift session
# [7] = PCP 2 mg/kg s.c., first set-shift to response discrimination session
# [8] = S(−)-VLX in plasma, 40 mg/kg PO, fasted rats
# [9] = 15 mg/kg PO 20 min prior to EPM
# [10] = 30 mg/kg PO 20 min prior to EPM
# [11] = 60 mg/kg PO 20 min prior to EPM
# [12] = Study 1, 0.5 mg/kg i.p. 30 min before testing
# [13] = Study 2, 0.5 mg/kg i.p. 30 min before testing
compound,measurement,setting,value
"CCOc1ccccc1OCC1CNCCO1 (racemic) [Viloxazine, (R,S)-2-[(2-ethoxyphenoxy)methyl]morpholine, reference compound]",behavioral activity (class/subclass analysis),behavioral signature; 15 mg/kg PO,low behavioral activity
same,behavioral activity (class/subclass analysis),behavioral signature; 30 mg/kg PO,moderate activity
same,behavioral activity (class/subclass analysis),behavioral signature; 60 and 90 mg/kg PO,high activity
same,proximity to donepezil,behavioral signature; [2],around 100%
same,proximity to thioperamide,behavioral signature; [2],around 100%
same,proximity to memantine,"behavioral signature; DRFA dose by dose, maximum reached",57%
"CN1CCc2cccc3c2[C@H]1Cc1ccc(O)c(O)c1-3 [APO, apomorphine, reference compound]",effect on PPI compared to vehicle,"prepulse inhibition; apomorphine 0.5 mg/kg s.c., all three prepulse levels",significantly (p<0.05) diminished PPI
same,Acoustic Startle (AU) (mean ± SEM),prepulse inhibition; [3],1546.1 ± 260.5 AU
same,% PPI (mean ± SEM),prepulse inhibition; [3],33.4 ± 5.5 %
"C[C@H](N)Cc1ccccc1 [Amphetamine, d-Amphetamine sulfate, reference compound]",LMA,sleep/wake and cataplexy,overall increase in LMA
same,Levels of C,sleep/wake and cataplexy,generally unaffected
same,W and NREM time,sleep/wake and cataplexy,increased W and decreased NREM
same,latency to sleep onset,sleep/wake and cataplexy,increased latency to the onset of both NREM and REM sleep
"O=C(CCCN1CCC(O)(c2ccc(Cl)cc2)CC1)c1ccc(F)cc1 [HAL, haloperidol, reference compound]",Acoustic Startle (AU) (mean ± SEM),prepulse inhibition; [4],1774.3 ± 770.6 AU
same,% PPI (mean ± SEM),prepulse inhibition; [4],55.2 ± 6.3 ^+ %
same,effect on apomorphine-induced PPI deficit,"prepulse inhibition; haloperidol 0.3 mg/kg, 75, 80 and 85 dB prepulse levels",significantly antagonized the effects of apomorphine on PPI
"c1ccc(C2(N3CCCCC3)CCCCC2)cc1 [PCP, Phencyclidine (PCP) hydrochloride]",number of errors vs saline controls,cognitive flexibility; [5],+66%
same,number of trials to reach the criterion vs saline controls,cognitive flexibility; [5],+35%
same,perseverative errors (average),cognitive flexibility; [6],35.8
same,total errors (average),cognitive flexibility; [6],37.8
same,number of errors vs saline controls,cognitive flexibility; [7],+47%
same,number of trials to reach the criterion vs saline controls,cognitive flexibility; [7],+45%
same,number of trials vs saline controls,"cognitive flexibility; PCP, second session (drug-free)",+31%
CCOc1ccccc1OC[C@@H]1CNCCO1 [S(−)-VLX],AUC0-last,[1]; [8],3594 ± 1641 ng·h/mL
same,AUC(0-inf),[1]; [8],3600 ng·h/mL
same,AUCExtra,[1]; [8],0.20%
same,AUMCExtra,[1]; [8],1.64%
same,Cmax,[1]; [8],2973 ± 1201 ng/mL
same,MRT0-inf,[1]; [8],67.2 min
same,MRT0-last,[1]; [8],66 ± 6.36 min
same,T1/2,[1]; [8],58.2 ± 16.3 min
same,Tlast,[1]; [8],8.00 h
same,Tmax,[1]; [8],25.2 min
same,Tmax,"[1]; S(−)-VLX in plasma, 40 mg/kg PO, fasted rats, listed as S-Viloxazine",25 ± 8.64 min
same,enantiomer R(+) VLX in plasma,"[1]; after S-Viloxazine 40 mg/kg PO, LLOQ 1.5 ng/mL",not detectable at any time points
same,Closed arm entries,anxiety-like behavior; [9],7.13
same,Closed arm returns,anxiety-like behavior; [9],2.13
same,Head dips in open arms,anxiety-like behavior; [9],1.38
same,Stretch-attend postures,anxiety-like behavior; [9],17.13
same,Time in closed arms,anxiety-like behavior; [9],289.33 s
same,Time in open arms,anxiety-like behavior; [9],1.08 s
same,Total arm entries,anxiety-like behavior; [9],7.25
same,% Time in open arms,anxiety-like behavior; [9],0.36 ± 0.36%
same,Open Arm Entries,anxiety-like behavior; [9],0.13 ± 0.13
same,Total distance travelled,anxiety-like behavior; [9],1334.42 ± 90.911 cm
same,Closed arm entries,anxiety-like behavior; [10],7.88
same,Closed arm returns,anxiety-like behavior; [10],2.75
same,Head dips in open arms,anxiety-like behavior; [10],3.38
same,Stretch-attend postures,anxiety-like behavior; [10],19.38
same,Time in closed arms,anxiety-like behavior; [10],277.60 s
same,Time in open arms,anxiety-like behavior; [10],6.11 s
same,Total arm entries,anxiety-like behavior; [10],8.25
same,% Time in open arms,anxiety-like behavior; [10],2.04 ± 1.60%
same,Open Arm Entries,anxiety-like behavior; [10],0.38 ± 0.26
same,Total distance travelled,anxiety-like behavior; [10],1334.22 ± 68.23 cm
same,Closed arm entries,anxiety-like behavior; [11],6.00
same,Closed arm returns,anxiety-like behavior; [11],3.50
same,Head dips in open arms,anxiety-like behavior; [11],2.88
same,Stretch-attend postures,anxiety-like behavior; [11],16.38
same,Time in closed arms,anxiety-like behavior; [11],279.11 s
same,Time in open arms,anxiety-like behavior; [11],6.43 s
same,Total arm entries,anxiety-like behavior; [11],6.50
same,% Time in open arms,anxiety-like behavior; [11],2.14 ± 1.52%
same,Open Arm Entries,anxiety-like behavior; [11],0.50 ± 0.38
same,Total distance travelled,anxiety-like behavior; [11],1350.11 ± 96.17 cm
same,anxiolytic activity,"anxiety-like behavior; S-VLX 15, 30, 60 mg/kg p.o.",None of the doses of S-Viloxazine were associated with anxiolytic activity
same,total distance traveled vs vehicle,"anxiety-like behavior; S-VLX 15, 30, and 60 mg/kg p.o.",travelled a significantly shorter distance
Cc1ncc2n1-c1ccc(Cl)cc1C(c1ccccc1F)=NC2 [midazolam],Closed arm entries,anxiety-like behavior; [12],14.13
same,Closed arm returns,anxiety-like behavior; [12],1.38
same,Head dips in open arms,anxiety-like behavior; [12],7.00
same,Stretch-attend postures,anxiety-like behavior; [12],18.88
same,Time in closed arms,anxiety-like behavior; [12],247.54 s
same,Time in open arms,anxiety-like behavior; [12],18.47 s
same,Total arm entries,anxiety-like behavior; [12],16.75
same,% Time in open arms,anxiety-like behavior; [12],6.16 ± 1.96 %
same,Open Arm Entries,anxiety-like behavior; [12],2.63 ± 0.78
same,Total distance travelled,anxiety-like behavior; [12],2064.55 ± 111.02 cm
same,Closed arm entries,anxiety-like behavior; [13],13.89
same,Closed arm returns,anxiety-like behavior; [13],1.44
same,Head dips in open arms,anxiety-like behavior; [13],5.67
same,Stretch-attend postures,anxiety-like behavior; [13],20.33
same,Time in closed arms,anxiety-like behavior; [13],259.11 s
same,Time in open arms,anxiety-like behavior; [13],18.38 s
same,Total arm entries,anxiety-like behavior; [13],16.22
same,% Time in open arms,anxiety-like behavior; [13],6.13 ± 1.80 %
same,Open Arm Entries,anxiety-like behavior; [13],2.33 ± 0.60
same,Total distance travelled,anxiety-like behavior; [13],2052.96 ± 791.05 cm
same,anxiolytic activity,"anxiety-like behavior; midazolam 0.5 mg/kg i.p., both studies",exhibited anxiolytic activity

# Reference: US20240343699A1, “DERIVATIVES OF SUBSTITUTED MORPHOLINES AND USES THEREOF” (Supernus Pharmaceuticals, Inc., priority 2023, published 2024)
